According to PubChem BioAssay AID489010 (Southern Research Specialized Biocontainment Screening …, 2010):
Calls of active or inactive are those of the source. No rule for the calls is given here.

Test: M. tuberculosis H37Rv growth inhibition, dose response, strain H37Rv (AID 489010)
Settings: M. tuberculosis H37Rv growth inhibition; at 100 µM (top of the series)
With `N#Cc1ccc(-n2c(-c3ccccc3)nnc2-c2ccccc2)cc1C#N` the growth inhibition was 6.39% (inactive). In the case of `O=C(Cc1cc(=O)[nH][nH]1)N/N=C/c1ccccc1[N+](=O)[O-]`, the growth inhibition is reported as -0.39% (inactive). For `CCOc1ccccc1C1C(C#N)=C(N)Nc2onc(-c3ccccc3)c21` (stereo not given), the growth inhibition was -3.07% (inactive). In the case of `CC(=O)N1CCC2(CC1)C(C#N)=C(N)Oc1n[nH]c(CSc3ccc(C)cc3)c12`, the growth inhibition is reported as 1.12% (inactive). For `Cc1cc(-c2[nH]nc3c2C(c2ccsc2)C(C#N)=C(N)O3)c(C)s1` (stereo not given), the growth inhibition was 3.11% (inactive). In the case of `O=C(CCCN1C(=O)/C(=C/c2cccs2)SC1=S)Nc1ccc(O)cc1`, the growth inhibition is reported as 21.9% (inactive). In the case of `Cc1ccc(SCc2[nH]nc3c2C2(CCSCC2)C(C#N)=C(N)O3)cc1`, the growth inhibition is reported as 6.38% (inactive). In the case of `N#CC1=C(N)Oc2n[nH]c(-c3ccccc3)c2C1c1ccsc1` (stereo not given), the growth inhibition is reported as 7.24% (inactive). For `COc1ccc(/C=C2/C(=O)N(c3ccccc3)N=C2C)c(OC)c1`, the growth inhibition was 4.59% (inactive). With `N#CC(C#N)C(c1ccsc1)c1c(-c2ccccc2)[nH][nH]c1=O` (stereo not given) the growth inhibition was -3.85% (inactive). For `CC(=O)N(C1CC(C)C(C#N)(C#N)C1(C#N)C#N)N(C)C` (stereo not given), the growth inhibition was -7.63% (inactive). With `Cc1ccsc1/C=N/NC(=O)Cc1cc(=O)[nH][nH]1` the growth inhibition was -3.09% (inactive). For `Cc1ccc(SCC2=NNC(=O)C2)cc1`, the growth inhibition was 5.45% (inactive). In the case of `Cc1nn(C)c(C)c1C1C(C#N)=C(N)Oc2n[nH]c(C)c21` (stereo not given), the growth inhibition is reported as 2.21% (inactive). For `COc1cccc(-c2[nH]nc3c2C(c2ccsc2)C(C#N)=C(N)O3)c1` (stereo not given), the growth inhibition was 5.86% (inactive). For `O=C(Cc1cc(=O)[nH][nH]1)N/N=C/c1c(F)cccc1Cl`, the growth inhibition was 1.68% (inactive). With `O=C1CC(CSc2ccc(Cl)cc2)=NN1` the growth inhibition was -0.64% (inactive). In the case of `COc1ccc(/C=C2/C(=O)N(c3ccccc3)N=C2C)cc1OC`, the growth inhibition is reported as 3.28% (inactive). In the case of `O=C(Cc1cc(=O)[nH][nH]1)N/N=C/c1c(Cl)cccc1Cl`, the growth inhibition is reported as 9.07% (inactive). For `N#CC1=C(N)Oc2n[nH]c(-c3cccs3)c2C1c1ccccc1C(=O)O` (stereo not given), the growth inhibition was 10.2% (inactive). With `O=C(Cc1cc(=O)[nH][nH]1)N/N=C/c1ccccc1Cl` the growth inhibition was 2.61% (inactive). With `Cc1ccc(-c2[nH]nc3c2C(c2ccc(OC(=O)N4CCOCC4)cc2)C(C#N)=C(N)O3)cc1` (stereo not given) the growth inhibition was 3.59% (inactive). For `CC1(C)N=C(SCC(=O)Nc2ccc(Cl)cc2)C(c2ccc(Cl)cc2)=N1`, the growth inhibition was 2.13% (inactive). With `Cc1ccc(C2C(C#N)=C(N)Oc3n[nH]c(-c4cccs4)c32)cc1` (stereo not given) the growth inhibition was 3.65% (inactive). With `O=C(Cc1cc(=O)[nH][nH]1)N/N=C/C=C/c1ccccc1` the growth inhibition was -3.45% (inactive).
